The text below walks through data of patent US6514686B2, “Method and composition for modulating amyloidosis” (The University of British Columbia, priority 1997, dated 2003).

Common to all, as to assay type: cell-based
Test [1] deals with APPs secretion in wild-type PC12 cells. Nature of the test: APPs secretion from wild-type PC12 cells, fifteen minute exposure. The text has this: Phorbol 12-myristate 13-acetate (PMA) was purchased from LC Service Corp., Woburn, Mass. All other materials were obtained as previously described in Example 1. Wild-type PC12 cells were purchased from the American Type Tissue Culture Collection # CRL-1721 and grown in DMEM with 5% FBS fetal bovine serum and 10% horse serum (GIBCO).
PC12 cells grown to confluence were pretreated for twelve hours in DMEM supplemented with charcoal-stripped calf serum (SIGMA) as described above. After pretreatment, cells were trypsinized, resuspended, and counted as described above. 10 mls each of 1.0×10^6 cells/ml PC12 cells were aliquoted into 15 ml conical tubes containing the appropriate treatment group. PMA was used as a positive control as previous experiments had shown that such treatment increases APPs release (Buxbaum, J. D. et al., “Processing of Alzheimer β/A4 amyloid precursor protein: Modulation by agents that regulate protein phosphorylation”, Proc. Natl. Acad. Sci. USA 87:6003-6006 (1990); Caporaso, G. L. et al., “Protein phosphorylation regulates secretion of Alzheimer β/A4 amyloid precursor protein”, Proc. Natl. Acad. Sci. USA 89:3055-3059 (1992); Mills, J. and P. B. Reiner, “Phorbol esters but not the cholinergic agonists oxotremorine-M and carbachol increase release of the amyloid precursor protein in cultured rat cortical neurons”, J. Neurochem. 67:1511-1518 (1996), the teachings of which are hereby incorporated by reference). The final percentage of DMSO in all treatment groups was normalized to 0.01% (v/v).
Treatment groups were as follows: a) Control; b) PMA (0.1 μM); c) RU-486 (0.1 μM). The concentration of (0.1 μM) RU-486 was chosen because it was near the EC50 mark (FIG. 4). 1.0 ml of each treatment group was pipetted into 1.5 eppendorf tubes and incubated at 37° C. in a […] incubator for fifteen minutes. Harvesting and concentration of APPs were performed as described in Example 1. Protein band separation on SDS-PAGE, visualization of bands, and quantification of APPs were also performed as previously described.
Materials and methods utilized were as outlined above. […]

Test [2] relates to APPs secretion in KB-3.1 cells transfected with human MDR1 (p-glycoprotein). Put plainly: APPs secretion from KB-3.1 cells transiently transfected with pHaMDR1. The note with it: 0.1 μM, fifteen minutes, plated cells, transfection efficiency ~10-20%; FIG. 10. As to the method: KB-3.1 cells were grown as described above. The pHaMDR1 plasmid construct encoding human MDR1 was obtained as a gift from Dr. Ira Pastan (National Cancer Institute).
For calcium-phosphate transfections, cells were plated onto 10 cm polypropylene petri dishes (Falcon) at a density of 2.0×10^6 cells/dish. To prepare the cDNA for transfection, 15 μg/plate of pHaMDR1 cDNA was mixed together with 1/10 volumes of 3 M sodium Acetate, ˜3× volume of 100% ethanol in a 1.5 ml eppendorf tube and spun in a desktop centrifuge for thirty seconds. The tube was then filled to the top with ethanol and spun at 15,000 rpm at 4° C. for ten minutes. The ethanol was aspirated, leaving a tiny pellet of cDNA on the bottom. In a sterile fumehood, the cDNA was resuspended with 450 μl of 0.1× tris-EDTA(TE) ethylene diamine tetraacetic acid, tris EDTA and 50 μl of 2.5 M CaCl2. 500 μL of 2× BES (50 mM N, N-bis[2 Hydroxyethyl]2-aminoethanesu acid, 280 mM NaCl, 1.5 mM Na2HPO4.2 H2O, pH 6.96) was added to make a final volume of 1.0 ml. The entire mixture was allowed to sit for twenty minutes before adding the contents to the plate of cells. […]
Exposures were performed without resuspending the cells, in contrast to previous experiments described above. […] 5 μl from each sample was collected for protein quantification. Protein determination and APPs quantification were performed as previously described.

For test [3], the system named is APPs secretion in KB-3.1 human carcinoma cell line. Nature of the test: APPs secretion from KB-3.1 cells with sub-detectable p-glycoprotein. As for the experimental part:
These cells were grown in DMEM with 10% FBS. All materials and methods are as outlined as above.

The test system of test [4] is APPs secretion in GSrasDN1 PC12 cells. Nature of the test: APPs secretion from GSrasDN1 PC12 cells (22C11 western blot, densitometry). The text has this: The GSrasDN1 PC12 subline (Dr. Simon Halegous (State University of New York at Stony Brook)) expressing the dominant inhibitory mutant ras gene, p21^N17 under the control of a dexamethasone-inducible MMTV promoter (mouse mammary tumor virus), obtained as a gift from Dr. Simon Halegoua, (Kremer et al., J. Cell Biol. 115(3):809-819 (1991)) and grown in Dulbecco's modified Eagles' medium (DMEM, GIBCO) containing 5% fetal bovine serum (FBS: v/v) and 10% heat inactivated horse serum (HS, GIBCO).
RU-486 and NGF were solubilized in dimethylsulfoxide (DMSO). DMSO was used as a control vehicle in all experiments.
For drug exposure experiments in GSrasDN1 PC12 cells, cells were grown to confluence in 75 cm^2 polypropylene culture flasks from Falcon. Twelve hours prior to drug treatment, the culture medium was aspirated using a pasteur pipette and replaced with 10 ml of DMEM supplemented with 15% charcoal-stripped calf serum (SIGMA) to remove complement, immunoglobulins and endogenous steroid hormones secreted from the cells. Twelve hours later, this supplemental medium was aspirated and replaced with 10 ml of DMEM containing the treatment drugs. Flasks were allotted into the following treatment groups: a) Control and b) RU-486 (3.0 μM). DMSO concentrations were normalized to 0.06% (v/v) in all flasks.
Twelve hours following drug exposure, the medium was again aspirated and the cells were washed once with 10 ml of phosphate-buffered saline (PBS, SIGMA). Cells were removed from the bottom of the flask by incubating with 1.0 ml of trypsin (GIBCO) for five minutes. […]
After the fifteen minutes had elapsed, the tubes were placed immediately on ice to stop any reactions and 200 μl of a protease cocktail (100 μM PMSF (phenylmethanesulfonyl fluoride), 5 μg/ml Leupeptin, 5 μg/ml Aprotinin, and 5)μg/ml Pepstatin) was added to each tube. […] The nuclear fraction was pelletted down at 14,000 rpm for ten min. and 5 μl of cellular homogenate was collected for a protein quantification. […]

[5] abbreviates: RU-486, dexamethasone 0.1 μM, progesterone, desmethoxyverapamil 1 μM, FIG. 7, 8.

For the compound `CC(=O)[C@H]1CC[C@H]2[C@@H]3CCC4=CC(=O)CC[C@]4(C)[C@H]3CC[C@]12C` [progesterone, Progesterone], the “effect on APPs secretion” value in test [1] (setting [5]) is on record as “significantly increased”.

As to `CCCCCCCCCCCCCC(=O)O[C@@H]1[C@@H](C)[C@@]2(O)[C@@H](C=C(CO)C[C@]3(O)C(=O)C(C)=C[C@@H]23)[C@@H]2C(C)(C)[C@]12OC(C)=O` [PMA, Phorbol 12-myristate 13-acetate], the “regulation of APPs secretion” value in test [2] is “restored regulation”; in test [3] (non-transfected cells exposed while plated, 0.1 μM, fifteen minutes), “no regulation”. Moreover, the “modulation of APPs secretion” value in test [3] (cells in suspension, FIG. 9) is given as “do not regulate”. In addition, in test [1] (0.1 μM, no drug pretreatment, FIG. 5), the “effect on APPs secretion” value is given as “increase”.

As to `COc1cccc(CCN(C)CCCC(C#N)(c2ccc(OC)c(OC)c2)C(C)C)c1` (stereo not drawn) [desmethoxyverapamil], in test [1] (setting [5]), the “effect on APPs secretion” value is reported as “significantly increased”.

As for `CC#C[C@]1(O)CC[C@H]2[C@@H]3CCC4=CC(=O)CCC4=C3[C@@H](c3ccc(N(C)C)cc3)C[C@@]21C` [RU-486, 17β-hydroxy-11β-[4-dimethylaminophenyl]-17α prop-l-ynyl estra-4,9-dien-3 one], the “increase in APPs secretion over NGF” value in test [4] (RU-486 3.0 μM versus NGF 50 ng/ml, FIG. 2) is ~6 fold. In test [4] (RU-486 3.0 μM, twelve hours exposure, APPs collected fifteen minutes, FIG. 2), the “increase in APPs secretion over control samples” value is given as ~12.5 fold. For the same compound, the “increased APPs secretion” value in test [4] (at 3.0 μM RU-486, sub-maximal concentration, FIG. 4) is on record as ~21 fold.
